Where two headings read alike, the source gives them in different places.
Assays:
[1] = type: physicochemical; settings: SGF with pepsin, pH 1.5, 37° C., 0.5 mM
[2] = type: physicochemical; settings: DI water, 25° C., 0.5 mM

COc1ccc([C@@]23CC/C(=N\NC(=O)NCCc4cccs4)C[C@@H]2N(C)CC3)cc1OC [Compound 256, 1-[[(3aS,7aS)-3a-(3,4-dimethoxyphenyl)-1-methyl-2,3,4,5,7,7a-hexahydroindol-6-ylidene]amino]-3-[2-(2-thienyl)ethyl]urea]
Condition 1 Conversion (%) ([1]; time 1 min): 0% | Condition 1 Conversion (%) ([1]; time 5 min): 0% | Condition 1 Conversion (%) ([1]; time 30 min): 100% | Condition 1 Conversion (%) ([1]; time 1 h): 100% | Condition 1 Conversion (%) ([1]; time 4 h): 23% | Condition 1 Conversion (%) ([1]; time 24 h): 100% | Condition 2 Conversion (%) ([2]; time 1 min): 0% | Condition 2 Conversion (%) ([2]; time 5 min): 0% | Condition 2 Conversion (%) ([2]; time 30 min): 0% | Condition 2 Conversion (%) ([2]; time 1 h): 0% | Condition 2 Conversion (%) ([2]; time 4 h): 43% | Condition 2 Conversion (%) ([2]; time 24 h): 0%

COc1ccc([C@@]23CC/C(=N\NC(=O)Nc4ccc(N5CCN(C)CC5)cc4)C[C@@H]2N(C)CC3)cc1OC [Compound 257, 1-[[(3aS,7aS)-3a-(3,4-dimethoxyphenyl)-1-methyl-2,3,4,5,7,7a-hexahydroindol-6-ylidene]amino]-3-[4-(4-methylpiperazin-1-yl)phenyl]urea]
Condition 1 Conversion (%) ([1]; time 1 min): 4.6% | Condition 1 Conversion (%) ([1]; time 5 min): 54.1% | Condition 1 Conversion (%) ([1]; time 30 min): 100% | Condition 1 Conversion (%) ([1]; time 1 h): 100% | Condition 1 Conversion (%) ([1]; time 4 h): 100% | Condition 1 Conversion (%) ([1]; time 24 h): 100% | Condition 2 Conversion (%) ([2]; time 1 min): 0% | Condition 2 Conversion (%) ([2]; time 5 min): 0% | Condition 2 Conversion (%) ([2]; time 30 min): 5% | Condition 2 Conversion (%) ([2]; time 1 h): 8% | Condition 2 Conversion (%) ([2]; time 4 h): 30% | Condition 2 Conversion (%) ([2]; time 24 h): 95%

COc1ccc([C@@]23CC/C(=N\NC(=O)NC[C@H]4CC[C@H](C(=O)O)CC4)C[C@@H]2N(C)CC3)cc1OC [Compound 258, 4-[[[[(3aS,7aS)-3a-(3,4-dimethoxyphenyl)-1-methyl-2,3,4,5,7,7a-hexahydroindol-6-ylidene]amino]carbamoylamino]methyl]cyclohexanecarboxylicacid]
Condition 1 Conversion (%) ([1]; time 1 min): 0% | Condition 1 Conversion (%) ([1]; time 5 min): 0% | Condition 1 Conversion (%) ([1]; time 30 min): 42.82% | Condition 1 Conversion (%) ([1]; time 1 h): 100% | Condition 1 Conversion (%) ([1]; time 4 h): 100% | Condition 1 Conversion (%) ([1]; time 24 h): 100% | Condition 2 Conversion (%) ([2]; time 1 min): 0% | Condition 2 Conversion (%) ([2]; time 5 min): 0% | Condition 2 Conversion (%) ([2]; time 30 min): 0% | Condition 2 Conversion (%) ([2]; time 1 h): 0% | Condition 2 Conversion (%) ([2]; time 4 h): 0% | Condition 2 Conversion (%) ([2]; time 24 h): 0%

COc1ccc([C@@]23CC/C(=N/NC(=O)Nc4ccccc4Cl)C[C@@H]2N(C)CC3)cc1OC [Compound 270, 1-[(Z)-[(3aS,7aS)-3a-(3,4-dimethoxyphenyl)-1-methyl-2,3,4,5,7,7a-hexahydroindol-6-ylidene]amino]-3-(2-chlorophenyl)urea]
Condition 1 Conversion (%) ([1]; time 1 min): 0% | Condition 1 Conversion (%) ([1]; time 5 min): 0% | Condition 1 Conversion (%) ([1]; time 30 min): 1% | Condition 1 Conversion (%) ([1]; time 1 h): 1% | Condition 2 Conversion (%) ([2]; time 1 min): 0% | Condition 2 Conversion (%) ([2]; time 5 min): 0% | Condition 2 Conversion (%) ([2]; time 30 min): 0% | Condition 2 Conversion (%) ([2]; time 1 h): 0%

COc1ccc([C@@]23CCC(=NNC(=O)C45CC6CC(CC(C6)C4)C5)C[C@@H]2N(C)CC3)cc1OC [Compound 271, N-[[(3aS,7aS)-3a-(3,4-dimethoxyphenyl)-1-methyl-2,3,4,5,7,7a-hexahydroindol-6-ylidene]amino]adamantane-1-carboxamide]
Condition 1 Conversion (%) ([1]; time 1 min): 100% | Condition 1 Conversion (%) ([1]; time 5 min): 100% | Condition 1 Conversion (%) ([1]; time 30 min): 100% | Condition 1 Conversion (%) ([1]; time 1 h): 100% | Condition 1 Conversion (%) ([1]; time 4 h): 100% | Condition 1 Conversion (%) ([1]; time 24 h): 100% | Condition 2 Conversion (%) ([2]; time 1 min): 78.3% | Condition 2 Conversion (%) ([2]; time 5 min): 70.3% | Condition 2 Conversion (%) ([2]; time 30 min): 82% | Condition 2 Conversion (%) ([2]; time 1 h): 85.7% | Condition 2 Conversion (%) ([2]; time 4 h): 94.5% | Condition 2 Conversion (%) ([2]; time 24 h): 100%

COc1ccc([C@@]23CC/C(=N/OC45CC6CC(CC(C6)C4)C5)C[C@@H]2N(C)CC3)cc1OC [Compound 274, (Z,3aS,7aS)-N-(1-adamantyloxy)-3a-(3,4-dimethoxyphenyl)-1-methyl-2,3,4,5,7,7a-hexahydroindol-6-imine]
Condition 1 Conversion (%) ([1]; time 1 min): 0% | Condition 1 Conversion (%) ([1]; time 5 min): 0% | Condition 1 Conversion (%) ([1]; time 30 min): 0% | Condition 1 Conversion (%) ([1]; time 1 h): 0% | Condition 1 Conversion (%) ([1]; time 4 h): 35.5% | Condition 1 Conversion (%) ([1]; time 24 h): 39.91% | Condition 2 Conversion (%) ([2]; time 1 min): 0% | Condition 2 Conversion (%) ([2]; time 5 min): 0% | Condition 2 Conversion (%) ([2]; time 30 min): 0% | Condition 2 Conversion (%) ([2]; time 1 h): 0% | Condition 2 Conversion (%) ([2]; time 4 h): 0% | Condition 2 Conversion (%) ([2]; time 24 h): 0%

COc1ccc([C@@]23CCC(=NOCCC45CC6CC(CC(C6)C4)C5)C[C@@H]2N(C)CC3)cc1OC [Compound 276, (3aS,7aS)-N-[2-(1-adamantyl)ethoxy]-3a-(3,4-dimethoxyphenyl)-1-methyl-2,3,4,5,7,7a-hexahydroindol-6-imine]
Condition 1 Conversion (%) ([1]; time 1 min): 0% | Condition 1 Conversion (%) ([1]; time 5 min): 0% | Condition 1 Conversion (%) ([1]; time 30 min): 0% | Condition 1 Conversion (%) ([1]; time 1 h): 2.77% | Condition 1 Conversion (%) ([1]; time 4 h): 5.48% | Condition 1 Conversion (%) ([1]; time 24 h): 5.5% | Condition 2 Conversion (%) ([2]; time 1 min): 0% | Condition 2 Conversion (%) ([2]; time 5 min): 0% | Condition 2 Conversion (%) ([2]; time 30 min): 0% | Condition 2 Conversion (%) ([2]; time 1 h): 0% | Condition 2 Conversion (%) ([2]; time 4 h): 0% | Condition 2 Conversion (%) ([2]; time 24 h): 0%

COc1ccc([C@@]23CCC(=NNC(=O)Nc4cccnc4)C[C@@H]2N(C)CC3)cc1OC [Compound 299, 1-[[(3aS,7aS)-3a-(3,4-dimethoxyphenyl)-1-methyl-2,3,4,5,7,7a-hexahydroindol-6-ylidene]amino]-3-(3-pyridyl)urea]
Condition 1 Conversion (%) ([1]; time 1 min): 53% | Condition 1 Conversion (%) ([1]; time 5 min): 100% | Condition 1 Conversion (%) ([1]; time 30 min): 100% | Condition 1 Conversion (%) ([1]; time 1 h): 100% | Condition 1 Conversion (%) ([1]; time 4 h): 100% | Condition 1 Conversion (%) ([1]; time 24 h): 100% | Condition 2 Conversion (%) ([2]; time 1 min): 0% | Condition 2 Conversion (%) ([2]; time 5 min): 0% | Condition 2 Conversion (%) ([2]; time 30 min): 0% | Condition 2 Conversion (%) ([2]; time 1 h): 0% | Condition 2 Conversion (%) ([2]; time 4 h): 8% | Condition 2 Conversion (%) ([2]; time 24 h): 13%

COc1ccc([C@@]23CC/C(=N/OC45CC6CC(CC(C6)C4)C5)C[C@@H]2N(C)CC3)cc1OC [Compound 301, (Z,3aS,7aS)-N-(1-adamantyloxy)-3a-(3,4-dimethoxyphenyl)-1-methyl-2,3,4,5,7,7a-hexahydroindol-6-imine]
Condition 1 Conversion (%) ([1]; time 1 min): 0% | Condition 1 Conversion (%) ([1]; time 5 min): 0% | Condition 1 Conversion (%) ([1]; time 30 min): 0% | Condition 1 Conversion (%) ([1]; time 1 h): 0% | Condition 1 Conversion (%) ([1]; time 4 h): 100% | Condition 1 Conversion (%) ([1]; time 24 h): 100% | Condition 2 Conversion (%) ([2]; time 1 min): 0% | Condition 2 Conversion (%) ([2]; time 5 min): 0% | Condition 2 Conversion (%) ([2]; time 30 min): 0% | Condition 2 Conversion (%) ([2]; time 1 h): 0% | Condition 2 Conversion (%) ([2]; time 4 h): 0% | Condition 2 Conversion (%) ([2]; time 24 h): 0%

COc1ccc([C@@]23CCC(=NNc4ccc(F)cc4)C[C@@H]2N(C)CC3)cc1OC [Compound 361, (3aS,7aS)-3a-(3,4-dimethoxyphenyl)-6-(2-(4-fluorophenyl)-hydrazineylidene)-1-methyloctahydro-1H-indole]
Condition 1 Conversion (%) ([1]; time 1 min): 10% | Condition 1 Conversion (%) ([1]; time 5 min): 100% | Condition 1 Conversion (%) ([1]; time 30 min): 100% | Condition 1 Conversion (%) ([1]; time 1 h): 100% | Condition 1 Conversion (%) ([1]; time 4 h): 100% | Condition 1 Conversion (%) ([1]; time 24 h): 100% | Condition 2 Conversion (%) ([2]; time 1 min): 0% | Condition 2 Conversion (%) ([2]; time 5 min): 0% | Condition 2 Conversion (%) ([2]; time 30 min): 0% | Condition 2 Conversion (%) ([2]; time 1 h): 0% | Condition 2 Conversion (%) ([2]; time 4 h): 45% | Condition 2 Conversion (%) ([2]; time 24 h): 100%

COc1ccc([C@@]23CCC(=NNc4ccc(C(=O)O)cc4)C[C@@H]2N(C)CC3)cc1OC [Compound 363, 4-[2-[(3aS,7aS)-3a-(3,4-dimethoxyphenyl)-1-methyl-2,3,4,5,7,7a-hexahydroindol-6-ylidene]hydrazino]benzoic acid]
Condition 1 Conversion (%) ([1]; time 1 min): 0% | Condition 1 Conversion (%) ([1]; time 5 min): 0% | Condition 1 Conversion (%) ([1]; time 30 min): 0% | Condition 1 Conversion (%) ([1]; time 1 h): 2.1% | Condition 1 Conversion (%) ([1]; time 4 h): 27.1% | Condition 1 Conversion (%) ([1]; time 24 h): 46.7% | Condition 2 Conversion (%) ([2]; time 1 min): 0% | Condition 2 Conversion (%) ([2]; time 5 min): 0% | Condition 2 Conversion (%) ([2]; time 30 min): 0% | Condition 2 Conversion (%) ([2]; time 1 h): 0% | Condition 2 Conversion (%) ([2]; time 4 h): 0% | Condition 2 Conversion (%) ([2]; time 24 h): 8.1%

Reference: patent US20250051277A1, “DELIVERY OF THERAPEUTIC ALKALOID COMPOUNDS” (Sensorium Therapeutics, Inc., priority 2021, published 2025)
